ChEMBL document CHEMBL1201862, “PubChem BioAssay data set” (2004)
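Exposure lasted 48 hours, with cells grown in 96-well plates and compounds tested at five concentrations. The concentration for 50% growth inhibition is given as GI50.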 Calls of active or inactive are those of the source. No stated cut-off is given here; in the data, active = GI50 up to about 1.1 µM and inactive = higher.

How the values were obtained:
Experiment in all cases: growth of human tumour cells (NCI), 48 h
K562 = tested on: K562
IGROV-1 = tested on: IGROV-1
SNB-75 = tested on: SNB-75
HCT-15 = tested on: HCT-15
MOLT-4 = tested on: MOLT-4
SK-MEL-28 = tested on: SK-MEL-28
SR = tested on: SR
UACC-257 = tested on: UACC-257
UACC-62 = tested on: UACC-62
NCI-H460 = tested on: NCI-H460
RXF 393 = tested on: RXF 393
UO-31 = tested on: UO-31
TK-10 = tested on: TK-10
OVCAR-3 = tested on: OVCAR-3

SMILES | GI50 (K562) | GI50 (IGROV-1) | GI50 (SNB-75) | GI50 (HCT-15) [µM] | GI50 (MOLT-4) | GI50 (SK-MEL-28) | GI50 (SR) | GI50 (UACC-257) | GI50 (UACC-62) | GI50 (NCI-H460) | GI50 (RXF 393) | GI50 (UO-31) | GI50 (TK-10) | GI50 (OVCAR-3)
CCc1cccc(C(C)C)c1NC(=O)C(=O)C(C(=O)C(=O)OC)c1nc2ccccc2nc1O (stereo not drawn) | > 100 µM (inactive) | > 100 µM (inactive) | > 100 µM (inactive) | > 100 | > 100 µM (inactive) | > 100 µM (inactive) | > 100 µM (inactive) | > 100 µM (inactive) | > 100 µM (inactive) | > 100 µM (inactive) | > 100 µM (inactive) | > 100 µM (inactive) | > 100 µM (inactive) | –
CCCc1cc(OC(=O)c2c(O)cc(OC)cc2CCC)cc(O)c1C(=O)O | 32.5 µM (inactive) | 47.9 µM (inactive) | 27.5 µM (inactive) | – | 29.5 µM (inactive) | 28.2 µM (inactive) | – | 18.8 µM (inactive) | 35.7 µM (inactive) | 23.9 µM (inactive) | 16.6 µM (inactive) | 13 µM (inactive) | 48.5 µM (inactive) | 20.6 µM (inactive)
CC(=O)/C=C1\CC(=O)Nc2ccccc2N1 | > 100 µM (inactive) | > 100 µM (inactive) | > 100 µM (inactive) | > 100 | – | > 100 µM (inactive) | – | > 100 µM (inactive) | > 100 µM (inactive) | > 100 µM (inactive) | > 100 µM (inactive) | > 100 µM (inactive) | > 100 µM (inactive) | –
CC1=C(C(=O)CC(=O)C(=O)Nc2ccc(C)c(C)c2)Sc2ccccc2N1 | – | > 100 µM (inactive) | > 100 µM (inactive) | > 100 | – | > 100 µM (inactive) | – | > 100 µM (inactive) | > 100 µM (inactive) | > 100 µM (inactive) | > 100 µM (inactive) | > 100 µM (inactive) | > 100 µM (inactive) | > 100 µM (inactive)
O=[PH](O)c1cc2c3ccccc3ccc2c2ccccc12 | > 100 µM (inactive) | > 100 µM (inactive) | > 100 µM (inactive) | – | > 100 µM (inactive) | > 100 µM (inactive) | – | – | > 100 µM (inactive) | > 100 µM (inactive) | > 100 µM (inactive) | – | > 100 µM (inactive) | > 100 µM (inactive)
O=C1/C(=C/c2cc(O)c(O)c(O)c2)Oc2cc(O)cc(OC3OC(CO)C(O)C(O)C3O)c21 (stereo not drawn) | 16.9 µM (inactive) | 36.2 µM (inactive) | > 100 µM (inactive) | 22.4 | 19.1 µM (inactive) | 46.3 µM (inactive) | – | – | 16 µM (inactive) | 13.9 µM (inactive) | – | 32.4 µM (inactive) | 30.5 µM (inactive) | 14.9 µM (inactive)
CCOc1ccccc1NC(=O)C(=O)Cc1nc2ccccc2s1 | – | > 100 µM (inactive) | 77.1 µM (inactive) | > 100 | > 100 µM (inactive) | > 100 µM (inactive) | > 100 µM (inactive) | > 100 µM (inactive) | > 100 µM (inactive) | > 100 µM (inactive) | > 100 µM (inactive) | > 100 µM (inactive) | > 100 µM (inactive) | > 100 µM (inactive)
COc1cc2c(cc1OC)C1C=NC(C(=O)O)(C2)c2ccccc21 (stereo not drawn) | 23 µM (inactive) | > 100 µM (inactive) | > 100 µM (inactive) | > 100 | > 100 µM (inactive) | – | > 100 µM (inactive) | > 100 µM (inactive) | > 100 µM (inactive) | > 100 µM (inactive) | > 100 µM (inactive) | > 10 µM (inactive) | > 100 µM (inactive) | > 100 µM (inactive)
C=CCc1cc(-c2cc(CC=C)c(O)c(CNCCCl)c2)cc(CNCCCl)c1O | 17.8 µM (inactive) | 23.6 µM (inactive) | 12.3 µM (inactive) | 16.4 | 16.9 µM (inactive) | 18.6 µM (inactive) | – | 17.4 µM (inactive) | 14.6 µM (inactive) | 16.8 µM (inactive) | – | 14.5 µM (inactive) | 19.6 µM (inactive) | 21.4 µM (inactive)
CN1C(=O)C(=CN)C(=O)N(C)C1=O | > 100 µM (inactive) | – | > 100 µM (inactive) | > 100 | > 100 µM (inactive) | > 100 µM (inactive) | > 100 µM (inactive) | > 100 µM (inactive) | – | > 100 µM (inactive) | > 100 µM (inactive) | > 100 µM (inactive) | > 100 µM (inactive) | > 100 µM (inactive)
N/N=C1\C(=O)N(C2CCCCC2)C(=O)C1C(=O)NC1CCCCC1 (stereo not drawn) | > 100 µM (inactive) | > 100 µM (inactive) | 56.4 µM (inactive) | > 100 | > 100 µM (inactive) | 81.8 µM (inactive) | > 100 µM (inactive) | 87.9 µM (inactive) | > 100 µM (inactive) | > 100 µM (inactive) | – | > 100 µM (inactive) | – | 21 µM (inactive)
Cc1ccc2c(c1)CNc1ccc(C)cc1CN2 | > 100 µM (inactive) | > 100 µM (inactive) | 3.19 µM (inactive) | > 100 | > 100 µM (inactive) | – | > 100 µM (inactive) | – | > 100 µM (inactive) | > 100 µM (inactive) | – | > 100 µM (inactive) | – | > 100 µM (inactive)
COC(=O)C1Cc2c([nH]c3ccccc23)C(C2CCCCC2)N1 (stereo not drawn) | > 100 µM (inactive) | 83.9 µM (inactive) | > 100 µM (inactive) | > 100 | > 100 µM (inactive) | > 100 µM (inactive) | > 100 µM (inactive) | > 100 µM (inactive) | > 100 µM (inactive) | > 100 µM (inactive) | – | > 100 µM (inactive) | > 100 µM (inactive) | > 100 µM (inactive)
CC1CC(C2=CC=CCS2)=Nc2ccccc2S1 (stereo not drawn) | > 100 µM (inactive) | > 100 µM (inactive) | 14.1 µM (inactive) | > 100 | > 100 µM (inactive) | > 100 µM (inactive) | – | 12.3 µM (inactive) | > 100 µM (inactive) | > 100 µM (inactive) | > 100 µM (inactive) | > 100 µM (inactive) | > 100 µM (inactive) | > 100 µM (inactive)
COC(=O)/C(=C/c1ccc(OC)cc1)C(C(=O)O)=C1CCCC1 | > 100 µM (inactive) | > 100 µM (inactive) | > 100 µM (inactive) | > 100 | > 100 µM (inactive) | – | > 100 µM (inactive) | > 100 µM (inactive) | > 100 µM (inactive) | > 100 µM (inactive) | > 100 µM (inactive) | > 100 µM (inactive) | > 100 µM (inactive) | –
NC(CCc1nc(-c2ccccc2)cs1)C(=O)O (stereo not drawn) | > 100 µM (inactive) | > 100 µM (inactive) | 59.6 µM (inactive) | > 100 | > 100 µM (inactive) | > 100 µM (inactive) | – | > 100 µM (inactive) | > 100 µM (inactive) | > 100 µM (inactive) | > 100 µM (inactive) | 75.2 µM (inactive) | > 100 µM (inactive) | > 100 µM (inactive)
COc1ccc2cc3[n+](cc2c1OC)CCc1cc(O)c(O)cc1-3 | > 100 µM (inactive) | > 100 µM (inactive) | > 100 µM (inactive) | > 100 | > 100 µM (inactive) | – | – | > 100 µM (inactive) | > 100 µM (inactive) | > 100 µM (inactive) | > 100 µM (inactive) | > 100 µM (inactive) | > 100 µM (inactive) | > 100 µM (inactive)
